Test results published in patent publication US10857137B2, “Methods for the administration of certain VMAT2 inhibitors” (Neurocrine Biosciences, Inc., priority 2017, dated 2020).
Entries after “also recorded” stand apart in the source; their conditions may differ.

Experiments:
[1] = target: T1, human VMAT1 transporter (Homo sapiens, UniProt P54219); assay: Uptake in cells expressing VMAT1; format: cell-based; settings: test compounds at concentrations up to 10 μM
T1 construct: expressed in transfected cells
T1 sequence (P54219 1-525): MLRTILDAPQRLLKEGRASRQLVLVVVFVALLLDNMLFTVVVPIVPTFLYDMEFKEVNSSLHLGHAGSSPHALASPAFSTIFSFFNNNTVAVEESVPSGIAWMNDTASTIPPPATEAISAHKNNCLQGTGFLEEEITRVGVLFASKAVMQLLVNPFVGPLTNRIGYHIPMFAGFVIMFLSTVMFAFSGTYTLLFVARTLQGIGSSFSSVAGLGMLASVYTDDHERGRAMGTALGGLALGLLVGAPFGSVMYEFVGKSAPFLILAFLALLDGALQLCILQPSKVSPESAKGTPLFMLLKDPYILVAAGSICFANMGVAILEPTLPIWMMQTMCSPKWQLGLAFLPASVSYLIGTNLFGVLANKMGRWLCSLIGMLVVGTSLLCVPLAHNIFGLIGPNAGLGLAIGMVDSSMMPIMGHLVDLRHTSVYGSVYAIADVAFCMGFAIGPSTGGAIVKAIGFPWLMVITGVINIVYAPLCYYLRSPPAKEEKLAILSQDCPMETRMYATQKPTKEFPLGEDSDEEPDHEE

[2] = Plasma concentrations of circulating metabolites of VBZ; format: in vivo; settings: metabolites formed from VBZ
[3] = system: more than 80 targets including GPCRs, cell-surface monoamine transporters, and ion channels including HERG; assay: Multi-target activity screen (Cerep screen), whole panel; format: binding; settings: receptors
[4] = system: prolactin release (D2 dopamine receptor); assay: Serum prolactin, in vivo surrogate measure
[5] = system: rat and human VMAT2; assay: VMAT2 [3H]-DHTBZ binding, summary statements over rat and human tissues; settings: rat striatum and human platelet homogenates
Description: The affinity of each compound was measured by inhibition of [^3H]-DHTBZ binding to rat forebrain membranes. […] The affinity of each compound was measured by inhibition of [^3H]-DHTBZ binding to either human platelets or rat striatal membranes.

[6] = system: ptosis (adrenergic activation); assay: Ptosis, in vivo surrogate measure
[7] = system: dopamine, serotonin and adrenergic receptor subtypes; assay: Detailed radioligand binding assays, monoamine receptors; settings: radioligand binding assays and broad panel screen

| SMILES | inhibition of uptake through VMAT1, in words [1] | affinity for more than 80 binding sites, in words [3] | increase in serum prolactin levels, in words [4] | induction of ptosis, in words [6] | other results |
| --- | --- | --- | --- | --- | --- |
| COc1cc2c(cc1OC)[C@H]1C[C@@H](OC(=O)[C@@H](N)C(C)(C)O)[C@H](CC(C)C)CN1CC2 [NBI-136110] | no significant inhibitory activity; also recorded: no significant effect | little to no affinity | – | – | decline of plasma concentrations (half-lives), in words [2]: half-lives similar to VBZ |
| COc1cc2c(cc1OC)[C@H]1C[C@@H](O)[C@H](CC(C)C)CN1CC2 [R,R,R-DHTBZ, (2R,3R,11bR)-3-isobutyl-9,10-dimethoxy-1,3,4,6,7,11b-hexahydro-2H-pyrido[2,1-a]isoquinolin-2-ol] | no significant inhibitory activity; also recorded: no significant effect | little to no affinity | induced a similar increase in serum prolactin levels as TBZ | induced ptosis in an equivalent manner | VMAT2 inhibition, in words [5]: most potent inhibitor of VMAT2; decline of plasma concentrations (half-lives), in words [2]: half-lives similar to VBZ |
| COc1cc2c(cc1OC)[C@@H]1C[C@@H](O)[C@@H](CC(C)C)CN1CC2 [R,S,S-DHTBZ, reference compound] | – | – | – | – | interaction with D1 and D2 receptors, in words [7]: interact with D1 and D2 receptors |
| COc1cc2c(cc1OC)[C@@H]1C[C@H](O)[C@@H](CC(C)C)CN1CC2 [S,S,S-DHTBZ, reference compound] | – | – | – | – | interaction with D1 and D2 receptors, in words [7]: interact with D1 and D2 receptors |
| COc1cc2c(cc1OC)C1CC(=O)C(CC(C)C)CN1CC2 (stereo not shown) [TBZ, reference compound] | no significant inhibitory activity; also recorded: no significant effect | – | increase in serum prolactin levels | induced ptosis in an equivalent manner | – |
| COc1cc2c(cc1OC)[C@H]1C[C@@H](OC(=O)[C@@H](N)C(C)C)[C@H](CC(C)C)CN1CC2 [Valbenazine, (S)-2-amino-3-methyl-butyric acid (2R,3R,11bR)-3-isobutyl-9,10-dimethoxy-1,3,4,6,7,11b-hexahydro-2H-pyrido[2,1-a]isoquinolin-2-yl ester] | – | little to no affinity | to a lesser extent | induced ptosis in an equivalent manner | inhibition of uptake through VMAT1, in words ([1]; listed as VBZ): no significant inhibitory activity; also recorded: no significant effect |
| COC(=O)[C@H]1[C@H]2C[C@@H]3c4[nH]c5cc(OC)ccc5c4CCN3C[C@H]2C[C@@H](OC(=O)c2cc(OC)c(OC)c(OC)c2)[C@@H]1OC [reserpine, reference compound] | substantially inhibited uptake through VMAT1 | – | – | – | – |
